# Where two headings read alike, the source gives them in different places.
# Test: PK studies in beagle dogs
# Type: in vivo
# Details: for AUC(0-inf) / AUC(0-t) / MRT last / MRT inf / Tmax / half-life / Cmax / CL/F / Vd/F: beagle; for MRT last: read-out: MRT(0-t); for MRT inf: read-out: MRT(0-∞); for half-life: read-out: t1/2z (converted); for CL/F: read-out: CLz/F (converted); for Vd/F: read-out: Vz/F
# Procedure: For the PK studies in rats and dogs, a total of 18 SD rats and 15 male beagle dogs were randomly divided into three groups, with six rats or five dogs per group, respectively. Prior to the experiments, all animals underwent a 12-h fasting period, while having free access to water. The animals were administered single oral doses of ammoxetine in three different dose levels: 8 mg/kg, 20 mg/kg, and 50 mg/kg for rats, and 2 mg/kg, 5 mg/kg, and 12.5 mg/kg for dogs, representing low, medium, and high doses. Serial blood samples were collected from the rats at 0, 2, 5, 15, and 30 min, as well as 1, 2, 4, 6, 8, 12, and 24 h post-dosing. For the dogs, blood samples were collected at 0, 5, 15, 30, and 45 min, as well as 1, 2, 4, 6, 8, 12, and 24 h post-dosing. Approximately 0.3 mL of blood was collected from the rats, while 2 mL of blood was collected from the dogs. The blood samples were collected into heparinized tubes. Following centrifugation, plasma samples were obtained and stored at −30°C until further analysis.
# For the absolute bioavailability (F, %) study in dogs, the dogs initially received a single gastric gavage of a low dose (2 mg/kg) of ammoxetine, followed by a 1-week washout period. After the washout, the same dose of ammoxetine was administered intravenously (i.v.). To assess the effects of nonfasting on ammoxetine PK, dogs that received a medium dose (5 mg/kg) of ammoxetine via gastric gavage underwent a radical washout period of 1 week. Subsequently, they were administered the same dose of ammoxetine via gastric gavage under nonfasting conditions. To compare sex differences in ammoxetine PK, an additional five female beagle dogs were administered a medium dose (5 mg/kg) of ammoxetine via gastric gavage after a 12-h overnight fast. Blood samples (2 mL) were collected from these dogs into heparinized tubes at predose and at specified time points: 5, 15, 30, and 45 min, as well as 1, 2, 4, 6, 8, 12, and 24 h postdose. For the repeat-dose study, after completing blood collection during the initial administration, dogs receiving a single gastric gavage of a medium dose (5 mg/kg) of ammoxetine under fasting conditions were subsequently orally dosed with seven repeat doses of ammoxetine (5 mg/kg) every 12 h. Trough blood samples were collected before the fourth to last administration to ensure steady-state blood concentrations (C ss ) were achieved. Approximately 2 mL of blood was collected at specified time points after the last dose and transferred into heparinized tubes. All blood samples were then centrifuged at 4,000 r/min for 20 min to obtain plasma samples, which were stored at −30°C until analysis.
# To determine the concentration of ammoxetine, 100 μL of L-phencynonate (IS, 50 ng/mL) and 300 μL of methanol were added to 100 μL of plasma samples from rats or dogs. After thorough vortexing, the mixture was centrifuged at 13,800×g for 10 min. The supernatants were then subjected to analysis using LC-MS-MS methods. PK parameters were calculated using DAS (Drug And Statistics for Windows) version 2.0, developed by the Shanghai University of Traditional Chinese Medicine, Shanghai, China. The F was determined by comparing the plasma area under the concentration-time curve (AUC) values after oral (p.o.) and intravenous (i.v.) administration of ammoxetine. F was calculated using the formula: F=AUCp.o./AUCi.v.×100% . Statistical analyses were performed using OriginPro 8.6 software. Paired sample or student’s t-test, as well as one-way ANOVA, were employed to compare the means of two or three groups, with a significance level set at p < 0.05.
# [1] = beagle dogs, 2 mg/kg p.o. vs i.v.
# [2] = beagle dogs, 5 mg/kg oral every 12 h, last time of multiple administrations
# [3] = dog, plasma, po, 5 mg/kg, beagle dogs, 5 mg/kg oral every 12 h, last time of multiple administrations
# [4] = female, dog, plasma, po, 5 mg/kg, female beagle dogs, 5 mg/kg oral, fasted
# [5] = male, dog, plasma, iv, 2 mg/kg, beagle dogs, 2 mg/kg intravenous administration
# [6] = male, dog, plasma, po, 2 mg/kg, beagle dogs, 2 mg/kg single oral dose
# [7] = male, dog, plasma, po, 5 mg/kg, beagle dogs, 5 mg/kg oral every 12 h, last time of multiple administrations
# [8] = male, dog, plasma, po, 5 mg/kg, beagle dogs, 5 mg/kg oral, fed (nonfasting)
# [9] = male, dog, plasma, po, 5 mg/kg, male beagle dogs, 5 mg/kg single oral dose, fasted (first dose)
# [10] = male, dog, plasma, po, 12.5 mg/kg, beagle dogs, 12.5 mg/kg single oral dose
smiles,measurement,setting,value
CNCC[C@H](Oc1cccc2c1OCO2)c1cccs1 [ammoxetine],F (absolute bioavailability) based on AUC(0-t),[1],41.76 ± 9.25%
same,F (absolute bioavailability) based on AUC(0-∞),[1],41.94 ± 9.31%
same,trough concentration,"beagle dogs, 5 mg/kg oral every 12 h, before the 4th dose",84.17 ± 50.58 ng/mL
same,trough concentration,"beagle dogs, 5 mg/kg oral every 12 h, before the 5th dose",64.21 ± 31.71 ng/mL
same,trough concentration,"beagle dogs, 5 mg/kg oral every 12 h, before the 6th dose",86.13 ± 43.95 ng/mL
same,trough concentration,"beagle dogs, 5 mg/kg oral every 12 h, before the 7th dose",95.71 ± 39.83 ng/mL
same,Cav,[2],337.19 ± 112.27 ng/mL
same,Cmin,[2],95.71 ± 39.83 ng/mL
same,DF (degree of fluctuation),[2],2.00 ± 0.45
same,AUC(0-inf),[3],5000 ng·h/mL
same,AUC(0-t),[3],4900 ng·h/mL
same,MRT last,[3],5.76 ± 0.6 h
same,MRT inf,[3],6.21 ± 0.73 h
same,Tmax,"dog, plasma, po, 5 mg/kg, beagle dogs, 5 mg/kg oral every 12 h, last time of multiple administrations, read-out: Tmax",1.1 ± 0.52 h
same,half-life,[3],4.13 ± 0.85 h
same,AUC,"dog, plasma, beagle dogs, 5 mg/kg oral every 12 h, last time of multiple administrations",4050 ng·h/mL
same,AUC(0-inf),[4],1660 ng·h/mL
same,AUC(0-t),[4],1640 ng·h/mL
same,Cmax,[4],476 ± 284 ng/mL
same,CL/F,[4],71.5 mL/min/kg
same,MRT last,[4],3.74 ± 0.78 h
same,MRT inf,[4],3.88 ± 0.83 h
same,Tmax,"female, dog, plasma, po, 5 mg/kg, female beagle dogs, 5 mg/kg oral, fasted, read-out: Tmax",0.85 ± 0.22 h
same,Vd/F,[4],20.9 ± 12.3 L/kg
same,half-life,[4],3.45 ± 0.4 h
same,AUC(0-inf),[5],1010 ng·h/mL
same,AUC(0-t),[5],1010 ng·h/mL
same,Cmax,[5],649 ± 119 ng/mL
same,MRT last,[5],2.3 ± 0.29 h
same,MRT inf,[5],2.33 ± 0.29 h
same,Tmax,"male, dog, plasma, iv, 2 mg/kg, beagle dogs, 2 mg/kg intravenous administration, read-out: Tmax",0.05 ± 0.03 h
same,half-life,[5],2.72 ± 0.51 h
same,AUC(0-inf),[6],420 ± 108 ng·h/mL
same,AUC(0-t),[6],418 ± 108 ng·h/mL
same,Cmax,[6],165 ± 49.5 ng/mL
same,CL/F,[6],83.5 mL/min/kg
same,MRT last,[6],2.94 ± 0.55 h
same,MRT inf,[6],3.08 ± 0.69 h
same,Tmax,"male, dog, plasma, po, 2 mg/kg, beagle dogs, 2 mg/kg single oral dose, read-out: Tmax",0.75 ± 0.18 h
same,Vd/F,[6],24.9 ± 13 L/kg
same,half-life,[6],3.4 ± 1.28 h
same,Cmax,[7],761 ± 254 ng/mL
same,CL/F,[7],18.7 mL/min/kg
same,Vd/F,[7],6.63 ± 2.77 L/kg
same,AUC(0-inf),[8],1960 ± 742 ng·h/mL
same,AUC(0-t),[8],1950 ± 738 ng·h/mL
same,Cmax,[8],522 ± 234 ng/mL
same,CL/F,[8],49.3 mL/min/kg
same,MRT last,[8],4.14 ± 0.54 h
same,MRT inf,[8],4.28 ± 0.59 h
same,Tmax,"male, dog, plasma, po, 5 mg/kg, beagle dogs, 5 mg/kg oral, fed (nonfasting), read-out: Tmax",0.8 ± 0.21 h
same,Vd/F,[8],14 ± 6.8 L/kg
same,half-life,[8],3.28 ± 0.28 h
same,AUC(0-inf),[9],1980 ± 533 ng·h/mL
same,AUC(0-t),[9],1960 ± 527 ng·h/mL
same,Cmax,[9],524 ± 214 ng/mL
same,CL/F,[9],45.2 mL/min/kg
same,MRT last,[9],4.4 ± 0.65 h
same,MRT inf,[9],4.7 ± 0.85 h
same,Tmax,"male, dog, plasma, po, 5 mg/kg, male beagle dogs, 5 mg/kg single oral dose, fasted (first dose), read-out: Tmax",0.8 ± 0.11 h
same,Vd/F,[9],14.9 ± 5.08 L/kg
same,half-life,[9],3.81 ± 0.52 h
same,AUC(0-inf),[10],8400 ng·h/mL
same,AUC(0-t),[10],7900 ng·h/mL
same,Cmax,[10],1470 ng/mL
same,CL/F,[10],25.8 mL/min/kg
same,MRT last,[10],5.43 ± 1.18 h
same,MRT inf,[10],7.53 ± 4.7 h
same,Tmax,"male, dog, plasma, po, 12.5 mg/kg, beagle dogs, 12.5 mg/kg single oral dose, read-out: Tmax",1.4 ± 0.6 h
same,Vd/F,[10],13.9 ± 11 L/kg
same,half-life,[10],6.2 ± 4.43 h
same,Tmax,"male, dog, plasma, po, 12.5 mg/kg, beagle dogs, oral 2, 5 and 12.5 mg/kg, read-out: Tmax values, range",0.75 to 1.4 h
same,bioavailability,"male, dog, plasma, oral, beagle dogs, 2 mg/kg, approximate value, read-out: absolute bioavailability",~42%
same,clearance,"male, dog, plasma, beagle dogs, 2 mg/kg intravenous administration, total clearance, read-out: CLz (converted)",34 mL/min/kg
same,Vd,"male, dog, plasma, beagle dogs, 2 mg/kg intravenous administration, volume of distribution, read-out: Vz",7.82 ± 1.2 L/kg

# — PMC11579541, “In vitro, in vivo, and in silico approaches for evaluating the preclinical DMPK profiles of ammoxetine, a novel chiral serotonin and norepinephrine reuptake inhibitor” (Frontiers in Pharmacology, 2024)
